Assay: Log P by HPLC on reversed phase columns (EEC directive 79/831 Annex V.A8)
Type: physicochemical
Details: for LogP: method [a]: LC-UV, acidic range, 0.1% formic acid in water and acetonitrile; for chromatographic logP: reversed phase HPLC columns, value in preparation example, method not marked
In short: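 Values come from retention times calibrated against alkan-2-ones (3–16 carbons) by linear interpolation, using reversed-phase LC-UV per EEC directive 79/831 Annex V.A8. Acetonitrile gradient 10–95% with 0.1% formic acid [a], 0.001 M ammonium acetate [b] or 0.1% phosphoric acid [c]; several values within one method separated by "+".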

O=C1CC(NC(=O)c2cc(Cl)c(Br)s2)CN1 (stereo not drawn) [I.0221]
LogP: 1.71^[a]

O=C(NC1CCNC1=O)c1cc(Br)c(Cl)s1 (stereo not drawn) [I.0222]
LogP: 1.73^[a]

O=C1CC(NC(=O)c2cc(Br)c(Cl)s2)CCN1 (stereo not drawn) [I.0223]
LogP: 1.80^[a]

O=C(NC1CCOC1=O)c1cc(Br)c(Cl)s1 (stereo not drawn) [I.0224]
LogP: 2.14^[a]

O=C1CC(NC(=O)c2cc(Br)c(Cl)s2)CN1 (stereo not drawn) [I.0225]
LogP: 1.73^[a]

O=C(O)CNC(=O)c1sc(Br)c(Br)c1F [I.0227, N-[(4,5-dibromo-3-fluoro-2-thienyl)carbonyl]glycine]
chromatographic logP: 1.97

CCC(C)C(NC(=O)c1sc(Br)c(Br)c1F)C(=O)O (stereo not drawn) [I.0235]
LogP: 3.40^[a]

CCOC(=O)[C@H](CC(C)C)NC(=O)c1sc(Cl)c(Cl)c1C#N [I.0279, ethyl N-[(4,5-dichloro-3-cyano-2-thienyl)carbonyl]leucinate]
chromatographic logP: 4.05

CC[C@H](C)[C@H](NC(=O)c1sc(Br)c(Cl)c1C)C(=O)OC [I.0322]
LogP: 4.25^[a]

COC(=O)[C@H](Cc1ccccc1)NC(=O)[C@H](CC(=O)O)NC(=O)c1sc(Br)c(Br)c1F [I.0338]
LogP: 2.98^[a]

COC(=O)C(Cc1ccccc1)NC(=O)C(CC(=O)O)NC(=O)c1sc(Br)c(Cl)c1C (stereo not drawn) [I.0339]
LogP: 3.09^[a]

COC(=O)[C@H](Cc1ccccc1)NC(=O)[C@H](CC(=O)O)NC(=O)c1sc(Cl)c(Br)c1C [I.0340]
LogP: 3.13^[a]

CCOC(=O)CNC(=O)c1sc(Br)c(Br)c1F [I.0449, ethyl N-[(4,5-dibromo-3-fluoro-2-thienyl)carbonyl]glycinate]
chromatographic logP: 2.97

COC(=O)C(Cc1ccccc1)NC(=O)C(CC(=O)O)NC(=O)c1sc(Cl)c(Cl)c1Br (stereo not drawn) [I.0487]
LogP: 3.23^[a]

COC(=O)[C@H](Cc1ccccc1)NC(=O)[C@H](CC(=O)O)NC(=O)c1sc(Br)c(Br)c1Cl [I.0488]
LogP: 3.20^[a]

COC(=O)C(Cc1ccccc1)NC(=O)C(CC(=O)O)NC(=O)c1sc(C#N)c(Br)c1C (stereo not drawn) [I.0501]
LogP: 2.70^[a]

O=C(N[C@H]1CCSC1=O)c1sc(Cl)c(Br)c1Cl [I.0525]
LogP: 3.28^[a]

CCOC(=O)C(C)(C)NC(=O)C(C)(C)NC(=O)c1sc(Cl)c(Br)c1Br [I.0699]
LogP: 3.94^[a]

O=C(NC1CCOC1=O)c1sc(Cl)c(Cl)c1C(F)F (stereo not drawn) [I.0747]
LogP: 2.40^[a]

Cc1c(C(=O)N[C@H]2CCOC2=O)sc(C#N)c1Br [I.0761]
LogP: 1.94^[a]

Cc1c(C(=O)N[C@H]2CCOC2=O)sc(Cl)c1Br [I.0762]
LogP: 2.45^[a]

Cc1c(C(=O)N[C@H]2CCOC2=O)sc(Br)c1Cl [I.0763]
LogP: 2.42^[a]

CCOC(=O)CNC(=O)c1sc(C)c(Cl)c1F [I.0793, ethyl N-[(4-chloro-3-fluoro-5-methyl-2-thienyl)carbonyl]glycinate]
chromatographic logP: 2.54

O=C(N[C@H]1CNC1=O)c1sc(Cl)c(Cl)c1Br [I.0808]
LogP: 2.03^[a]

N#Cc1c(C(=O)NC2CCOC2=O)sc(Cl)c1Cl (stereo not drawn) [I.0818]
LogP: 2.02^[a]

N#Cc1sc(C(=O)NC2CCOC2=O)c(Cl)c1Cl (stereo not drawn) [I.0819]
LogP: 2.05^[a]

Cc1c(C(=O)NC2CCOC2=O)sc(Cl)c1Br (stereo not drawn) [I.0820]
LogP: 2.48^[a]

Cc1c(C(=O)NC2CCSC2=O)sc(Cl)c1Br (stereo not drawn) [I.0821]
LogP (listed as 1.0821): 3.03^[a]

Cc1c(C(=O)NC2CCSC2=O)sc(Br)c1Cl (stereo not drawn) [I.0822]
LogP: 3.46^[a]

Cc1c(C(=O)NC2CCOC2=O)sc(Br)c1Cl (stereo not drawn) [I.0825]
LogP: 2.45^[a]

Cc1c(C(=O)NC2CCSC2=O)sc(C#N)c1Br (stereo not drawn) [I.0829]
LogP: 2.45^[a]

O=C(NC1CCOC1=O)c1sc(Cl)c(Cl)c1Br (stereo not drawn) [I.0839]
LogP: 2.63^[a]

Cc1c(C(=O)N[C@H]2CCSC2=O)sc(C#N)c1Br [I.0866]
LogP: 2.39^[a]

O=C(N[C@H]1CCSC1=O)c1sc(Br)c(Br)c1Cl [I.0867]
LogP: 3.24^[a]

N#CC1(NC(=O)c2sc(Br)c(Br)c2Cl)CCC(C2CCCCC2)CC1 (stereo not drawn) [I.0869]
LogP: 6.46^[a]

N#CC1(NC(=O)c2sc(Br)c(Br)c2Cl)CCC(c2ccccc2)CC1 (stereo not drawn) [I.0870]
LogP: 4.97^[a]

NC(=O)CNC(=O)c1sc(Br)c(Br)c1F [I.0894, N-(2-amino-2-oxoethyl)-4,5-dibromo-3-fluorothiophene-2-carboxamide]
chromatographic logP: 1.69

NC(=S)CNC(=O)c1sc(Br)c(Br)c1F [I.0896, N-(2-amino-2-sulfanylideneethyl)-4,5-dibromo-3-fluorothiophene-2-carboxamide]
chromatographic logP: 2.25

O=C(N[C@H]1CCOC1=O)c1sc(Cl)c(Cl)c1Br [I.0931]
LogP: 2.59^[a]

O=C(N[C@H]1CCOC1=O)c1sc(Br)c(Br)c1Cl [I.0932]
LogP: 2.62^[a]

O=C(N[C@H]1CCCNC1=O)c1sc(Cl)c(Br)c1Cl [I.0939]
LogP: 2.29^[a]

O=C(N[C@H]1CCCNC1=O)c1sc(Cl)c(Cl)c1Br [I.0944]
LogP: 2.30^[a]

O=C(NC1CCCCNC1=O)c1sc(Cl)c(Cl)c1Br (stereo not drawn) [I.0945]
LogP: 2.99^[a]

O=C(NC1CCOC1=O)c1sc(Cl)c(Br)c1Cl (stereo not drawn) [I.0949]
LogP: 2.56^[a]

O=C(N[C@H]1CCCNC1=O)c1sc(Br)c(Br)c1F [I.0950]
LogP: 2.05^[a]

O=C(NC1CCCCNC1=O)c1sc(Br)c(Br)c1F (stereo not drawn) [I.0951]
LogP: 2.68^[a]

O=C(N[C@H]1CCCNC1=O)c1sc(Br)c(Br)c1Cl [I.0956]
LogP: 2.31^[a]

O=C(NC1CCCCNC1=O)c1sc(Br)c(Br)c1Cl (stereo not drawn) [I.0957]
LogP: 2.99^[a]

O=C(NC1CCOC1=O)c1sc(Br)c(Br)c1F (stereo not drawn) [I.0958]
LogP (listed as 1.0958): 2.28^[a]

O=C(NC1CCSC1=O)c1sc(Br)c(Br)c1Cl (stereo not drawn) [I.1005]
LogP: 3.25^[a]

O=C(NC1CCSC1=O)c1sc(Cl)c(Cl)c1Br (stereo not drawn) [I.1006]
LogP: 3.25^[a]

N#CC1(NC(=O)c2sc(Br)c(Br)c2F)CCC(c2ccccc2)CC1 (stereo not drawn) [I.1009]
LogP: 4.78^[a]

O=C(N[C@H]1CCSC1=O)c1sc(Cl)c(Cl)c1Br [I.1011]
LogP: 3.24^[a]

N#CC1(NC(=O)c2sc(Br)c(Br)c2F)CCC(C2CCCCC2)CC1 (stereo not drawn) [I.1012]
LogP: 6.13^[a]

O=C(NC1CCOC1=O)c1sc(Br)c(Br)c1Cl (stereo not drawn) [I.1031]
LogP: 2.58^[a]

Cc1c(C(=O)NC2CCOC2=O)sc(C#N)c1Br (stereo not drawn) [I.1034]
LogP: 1.92^[a]

CCOC(=O)C(C)(C)NC(=O)c1sc(Cl)c(Cl)c1Br [I.1062, ethyl N-[(3-bromo-4,5-dichloro-2-thienyl)carbonyl]-2-methylalaninate]
chromatographic logP: 4.24

O=C(NC1CCOC1=O)c1sc(Br)c(Br)c1C(F)F (stereo not drawn) [I.1066]
LogP: 2.46^[a]

N#Cc1c(Br)sc(C(=O)O)c1Cl [II.001]
LogP: 1.66^[a]

N#Cc1c(Cl)sc(C(=O)O)c1Cl [II.002]
LogP: 1.59^[a]

O=C(O)c1sc(Cl)c(Cl)c1C(F)F [II.003]
LogP: 2.39^[a]

O=C(O)c1sc(Br)c(Br)c1C(F)(F)F [II.004]
LogP: 2.44^[a]

O=C(O)c1sc(Cl)c(Br)c1F [II.005]
LogP: 2.14^[a]

O=C(O)c1sc(Br)c(Br)c1C(F)F [II.006]
LogP: 2.46^[a]

Cc1c(C(=O)O)sc(Br)c1C#N [II.007]
LogP: 2.03^[a]

Cc1c(C(=O)O)sc(Cl)c1C#N [II.008]
LogP: 1.94^[a]

O=C(O)c1sc(Br)c(Cl)c1F [II.009]
LogP: 2.18^[a]

O=C(O)c1sc(Br)c(Cl)c1Cl [II.010]
LogP: 2.51^[a]

O=C(O)c1sc(Cl)c(Br)c1Br [II.011]
LogP: 2.57^[a]

O=C(O)c1sc(Cl)c(Br)c1Cl [II.012]
LogP: 2.44^[a]

Cc1sc(C(=O)O)c(F)c1Br [II.013]
LogP: 2.08^[a]

Cc1c(C(=O)O)sc(Cl)c1Br [II.014]
LogP: 2.80^[a]

Cc1c(C(=O)O)sc(Br)c1Cl [II.015]
LogP: 2.75^[a]

Cc1c(C(=O)O)sc(C#N)c1Cl [II.016]
LogP: 1.95^[a]

Cc1c(C(=O)O)sc(I)c1Br [II.017]
LogP: 2.86^[a]

Cc1c(C(=O)O)sc(Br)c1I [II.018]
LogP: 2.92^[a]

COC(=O)c1sc(Br)c(Br)c1C(F)(F)F [II.019]
LogP: 4.08^[a]

COC(=O)c1sc(Br)c(Cl)c1F [II.020]
LogP: 3.47^[a]

COC(=O)c1sc(Br)c(C#N)c1Cl [II.021]
LogP: 2.87^[a]

COC(=O)c1sc(Cl)c(C#N)c1Cl [II.022]
LogP: 2.82^[a]

COC(=O)c1sc(Cl)c(Cl)c1C(F)F [II.023]
LogP: 3.77^[a]

Cc1sc(C(=O)OCC(C)C)c(F)c1Br [II.024]
LogP: 4.77^[a]

COC(=O)c1sc(Cl)c(Br)c1F [II.025]
LogP: 3.47^[a]

COC(=O)c1sc(Cl)c(Br)c1Br [II.026]
LogP: 4.02^[a]

COC(=O)c1sc(Cl)c(Br)c1Cl [II.027]
LogP: 3.94^[a]

COC(=O)c1sc(Br)c(C#N)c1C [II.029]
LogP: 3.06^[a]

CCOC(=O)c1sc(I)c(Br)c1C [II.030]
LogP: 5.03^[a]

CCOC(=O)c1sc(Br)c(I)c1C [II.031]
LogP: 5.03^[a]

CCOC(=O)c1sc(Cl)c(Br)c1C [II.032]
LogP: 5.00^[a]

N#Cc1sc(C(=O)O)cc1Cl [II.034]
LogP: 1.33^[a]

O=C(O)c1cc(Br)c(F)s1 [II.035]
LogP: 1.94^[a]

N#Cc1sc(C(=O)O)cc1Br [II.036]
LogP: 1.41^[a]

O=C(O)c1cc(F)c(Cl)s1 [II.037]
LogP: 1.89^[a]

Cc1cc(C(=O)O)sc1Cl [II.038]
LogP: 2.16^[a]

O=C(O)c1cc(F)c(Br)s1 [II.039]
LogP: 1.02^[a]

O=C(O)c1cc(Cl)c(Br)s1 [II.040]
LogP: 2.23^[a]

N#Cc1cc(C(=O)O)sc1Cl [II.041]
LogP: 1.44^[a]

O=C(O)c1cc(Br)c(Cl)s1 [II.043]
LogP: 2.28^[a]

N#Cc1c(Br)sc(C(=O)O)c1Br [II.044]
LogP: 1.73^[a]
